According to patent US20250282764A1, “IMIDAZOLE HETEROCYCLE BASED COMPOUNDS AND METHODS OF TREATING CANCER” (King Abdulaziz University, priority 2024, published 2025):
Values after ≈ are worked out from the molar mass of the structure shown. Read-outs that look alike come from different tables or passages of the source.

Legend:
HCT116 = test: CellTiter-Blue cell viability assay, HCT116; format: cell-based, human; conditions: 50% cell viability vs untreated, mean of triplicates
Method: Cell culture of colorectal carcinoma cell lines was performed as follows. DLD-1, HCT116, and HT-29 cells were purchased from CLS Cell Line Service GmbH (Eppelheim, Germany) and cultured in Dulbecco's Modified Eagle Medium (DMEM) high glucose, GlutaMAX™ Supplement, pyruvate (Thermo Fisher Scientific, Paisley, UK) supplemented with 10% fetal bovine serum (FBS; Thermo Fisher Scientific), 200 U/mL penicillin, and 200 μg/ml streptomycin (Thermo Fisher Scientific), at 37° C. with 5% CO2 in a humidified incubator.
The CellTiter®-Blue Cell Viability assay was acquired from Promega Corporation (Madison, WI, USA). Cell viability assay was performed as follows: DLD-1 (4×10^3/well), HCT116 (4×10^3/well), and HT-29 (7×10^3/well) were incubated with a concentration gradient of compound (Id) ranging from 0.01 to 20 μM, in 96-well plates for 48 h at 37° C. Subsequently, 20 μl CellTiter®-Blue Cell Viability reagent was added to each well and incubated for an additional 2 h for the development of fluorescence. The fluorescence emission was measured at 590 nm using a SpectraMax® i3× Multi-Mode microplate reader (Molecular Devices, LLC, San Jose, CA, USA) and plotted against drug concentrations to determine the mean inhibitory concentration of compound (Id) producing 50% decrease in cell viability (IC50). Experiments were performed in triplicates.

K562 = test: CellTiter-Blue cell viability assay, K562; format: cell-based, human; conditions: 48 h, mean of triplicates
Method: (§1) Cell culture of leukemia cell lines model was performed as follows. HL60, K562, and NB4 cell lines were purchased from CLS Cell Line Service GmbH (Eppelheim, Germany). MV4-11 cell line was purchased from American Type Culture Collection (ATCC; Virginia, USA). KG1α also referred to as KG1a was a gift from Prof. Ghulam Mufti (King College London, UK). Kasumi-1 cell line was purchased from Nawah Scientific (Cairo, Egypt). All cell lines were cultured in Roswell Park Memorial Institute-1640 (RPMI-1640) culture medium supplemented with 10% fetal bovine serum (FBS) (Thermo Fisher Scientific) and 0.1% ciprofloxacin (10 μg/ml; Cipla Limited; Mumbai, India). Cells were maintained in a humidified incubator at 37° C. with 5% CO2.
(§2) Cell viability was determined using the CellTiter-Blue® Cell Viability Assay kit (Promega, Madison, WI, USA). Approximately […] were plated in 96 well plate in the presence of increasing drug concentration in triplicate and incubated for 48 h at 37° C. in a humidified incubator. After the incubation period, 20 μL of the cell titer blue reagent was added to each well and the plate was incubated for additional 2 h for the development of florescence. Florescence was measured at 540Ex/590Em on SpectraMax i3 Multi-Mode Microplate Reader (Molecular Devices, LLC; San Jose, CA, USA). […]

Kasumi-1 = test: CellTiter-Blue cell viability assay, Kasumi-1; format: cell-based, human; conditions: 48 h, mean of triplicates
Method: as §1, §2

[1] = Maximum kinetic aqueous solubility; format: physicochemical; conditions: 2% DMSO/PBS, pH 7.4, read-out: Max. aq. Sol.
Method: Solubility assays were performed using Millipore MultiScreen® HTS-PFC Filter Plates designed for solubility assays (EMD Millipore, Billerica, MA). Assays were run in triplicate. The 96-well plates consist of two chambers separated by a filter. Liquid handling was performed using JANUS® Verispan and MTD workstations (Perkin Elmer, Waltham, MA). 4 μL of compound (Id) solution (10 mM in DMSO) was added to 196 μL of phosphate buffer (45 mM potassium phosphate, 45 mM sodium acetate, 45 mM ethanolamine, pH=7.4) in the top chamber to give a final DMSO concentration of 2% and a theoretical drug concentration of 200 μM. Plates were gently shaken for 90 min and then subjected to vacuum. Insoluble drug was captured on the filter. 160 μL of the filtrate was transferred to 96-well Griener UV Star® analysis plates (Sigma-Aldrich, St. Louis, MO) containing 40 μL of acetonitrile. The test compound concentration in the filtrates was measured by UV absorbance on a SpectraMax® Plus microplate reader (Molecular Devices, Sunnyvale, CA) using Softmax Pro software v.5.4.5. Absorbances at 5 wavelengths (280, 300, 320, 340, and 360 nm) were summed to generate the UV signal. Standard curves were generated by adding 4 μL of five concentrations of test compound in DMSO to 40 μL of acetonitrile in UV Star plates followed by 156 μL of the appropriate solubility medium. Analysis and statistics were performed using GraphPad® Prism v.5.04. Data were reported as the maximum concentration observed in the filtrate.

[2] = Stability in mouse plasma; format: in vitro ADME; conditions: for Mouse Plasma Stability t1/2: 1 μM, 37° C.
Method: Stability in mouse plasma was tested as follows. The assay was conducted at 37° C. in triplicate. Test compound or procaine (positive control) was tested at a final concentration of 1 μM in either 2.5% DMSO/CD-1 mouse plasma (Innovative Research, Novi, MI; sodium heparin added as anticoagulant; pH adjusted to 7.4 with 2N HCl on day of use) or 2.5% DMSO/PBS (pH 7.4:136.9 mM NaCl, 2.68 mM KCl, 8.1 mM Na2HPO4, 1.47 mM KH2PO4, 0.9 mM CaCl2, 0.49 mM MgCl2). At seven time points, reaction mixture aliquots were transferred to 96-shallow well stop plates on ice containing acetonitrile with 0.1 μM propafenone. Samples were analyzed by LC/MS/MS on a Waters Xevo TQ instrument as described above using positive electrospray ionization. Assay acceptance criteria was 20% for all standards and 25% for the LLOQ. GraphPad® Prism v. 5.04 was used for nonlinear fitting of data to generate t1/2 values.

Row | SMILES | IC50 (HCT116; 48 h) | IC50 (HCT116; Homo sapiens, HCT-116, 48 h) | IC50 (K562; Homo sapiens, K562) | IC50 (Kasumi-1; Homo sapiens, Kasumi 1) | solubility kinetic at 90 min [1] | solubility kinetic at 90 min ([1]; phosphate buffer with 2% DMSO, aqueous buffer, kinetic from dmso stock) | Mouse Plasma Stability t1/2 [2] | half-life at 1 μM ([2]; CD-1, mouse, plasma, pH 7.4, 37° C., read-out: Mouse Plasma Stability t1/2) | IC50 (K562) | IC50 (Kasumi-1)
1 | CC1=N/C(=C\c2ccc(C)o2)C(=O)N1c1ccc(CC(=O)NCc2ccccc2)cc1 [Compound (Id), 2-Methyl-4-(5-methyl-2-furyl)methylene-1-[4-(benzylaminocarbonylmethyl)phenyl]-5-oxo-1H-imidazole] | 1460 nM | 1460 nM | 437 nM | 221 nM | 79.8 µM (≈ 33 µg/mL) | 79.8 µM (≈ 33 µg/mL) | >5 h | > 5 h | – | –
2 | COc1ccc(/C=C2\N=C(C)N(c3ccc(CC(=O)NCc4ccccc4)cc3)C2=O)cc1 [KIM-161, reference compound] | 1770 nM | – | – | – | 19.9 µM (≈ 8.75 µg/mL) | – | >5 h | – | 282 nM | 166 nM
